IC50 data for 10 compounds are collected here from BindingDB's records for doi:10.1007/s10822-022-00478-x (Roche Innovation Center Basel, F. Hoffmann-La Roche Ltd., 2022).

One may read the IC50 as the midpoint of a concentration-inhibition curve.

The assay addresses cAMP and cAMP-inhibited cGMP 3',5'-cyclic phosphodiesterase 10A (Homo sapiens, UniProt Q9Y233). The assay is described as follows: PDE10A assay. In outline: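 Human PDE10A (2 ng/well) preincubated 15 min RT with compound in HEPES pH 7.5, 10 mM MgCl2, BSA, then reacted 15 min with 50 nM [3H]cGMP/cGMP substrate. Stopped with Y-Si SPA beads; bound radioactivity counted, IC50 from four-parameter logistic, pIC50 = −log10(IC50).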
As for `CCc1cnc(C)n2nc(CCc3nc(N4CCCC4)nn3C)nc12` [Roche-Dataset for PDE10A, Compound 584], it took 0.00286 µM to reach half-maximal inhibition (IC50).
For the compound `COCc1ccc(NC(=O)c2nc(C3CC3)cnc2Nc2cncnc2)c(C(=O)NCC(C)(C)O)n1` [US8703768, 210], half-maximal inhibition (IC50) was put at 0.00048 µM.
The result for `O=C(NCCC1CCCCC1)c1nc(C2CC2)cnc1Nc1cncnc1` [Roche-Dataset for PDE10A, Compound 901] reads 1.41 µM.
Compound `CNC(=O)c1c(NC(=O)c2nc(C3CC3)ccc2Nc2cncnc2)cnn1CCOC` [US8703768, 11] yielded an IC50 of 0.00083 µM.
The result for `O=C(Nc1ccn(C2CCCCC2)n1)c1nc(C2CC2)ccc1Nc1cncnc1` [Roche-Dataset for PDE10A, Compound 632] reads 0.019 µM.
In the case of `Cc1c(Cl)cc(Cl)c2nc(CCc3cn4c(n3)SCC4)nn12` [Roche-Dataset for PDE10A, Compound 760] it was 0.027 µM; in that of `Cn1cc(-c2ccccc2)nc1COc1cc(N2CCOCC2)nc(-c2cccnc2)n1` [Roche-Dataset for PDE10A, Compound 312], 0.269 µM; in that of `CCCc1cccc(NC(=O)c2nc(C3CC3)cnc2Nc2cncnc2)n1` [Roche-Dataset for PDE10A, Compound 963], 0.016 µM.
`Cn1ncc(C(=O)N2CCC2)c1C(=O)N[C@@H]1CCn2cc(-c3ccccc3OC(F)F)nc2C1` [Roche-Dataset for PDE10A, Compound 257] registered an IC50 of 0.00604 µM.
In turn, `Cn1ncc(C(=O)N2CCC2)c1C(=O)Nc1ccn(Cc2cn(-c3ccc(Cl)c(Cl)c3)cn2)n1` [Roche-Dataset for PDE10A, Compound 669] yielded a concentration for half-maximal inhibition (IC50) of 0.08 µM.
